Laboratory results from patent US5466671A, “Apidaecin-type peptide antibiotics with improved activities and/or different antibacterial spectrum” (priority 1994, dated 1995).
Residues, ends and D or L forms follow the SMILES beside them.

What was measured:
Enterobacter cloacae = test: Inhibition zone assay (agar plate); assay type: cell-based; settings: agar plate, 50 nanomoles/well, 3 mm wells
Y. enterocolitica = test: Minimal inhibitory concentration (liquid culture); settings: inoculum 5000 CFU/ml; a-b = highest concentration with growth - lowest without growth
Escherichia coli (K514) = assay type: cell-based; settings: agar plate, 50 nanomoles/well, 3 mm wells
S. typhimurium = test: Minimal inhibitory concentration (liquid culture); settings: inoculum 8 × 10^6 CFU/ml; a-b = highest concentration with growth - lowest without growth
E. coli 25922 = test: Minimal inhibitory concentration (liquid culture); settings: inoculum 1100 CFU/ml; a-b = highest concentration with growth - lowest without growth
E. coli Apid^R = test: Minimal inhibitory concentration (liquid culture); assay type: cell-based; settings: a-b = highest concentration with growth - lowest without growth
Source text: For details see `Experimental Procedures`.

Klebsiella pneumoniae = test: Inhibition zone assay (agar plate); assay type: cell-based; settings: agar plate, 50 nanomoles/well, 3 mm wells
[1] = system: Escherichia coli (ATCC11775); test: Inhibition zone assay (agar plate); assay type: cell-based; settings: agar plate, 50 nanomoles/well, 3 mm wells
Pseudomonas syringae = test: Inhibition zone assay (agar plate); assay type: cell-based; settings: agar plate, 50 nanomoles/well, 3 mm wells
Rhizobium meliloti = test: Inhibition zone assay (agar plate); assay type: cell-based; settings: 50 nanomoles/well, 3 mm wells
Erwinia amylovora = test: Inhibition zone assay (agar plate); assay type: cell-based; settings: agar plate, 50 nanomoles/well, 3 mm wells
[2] = system: Agrobacterium tumefaciens; test: Inhibition zone assay (agar plate); assay type: cell-based; settings: agar plate, 50 nanomoles/well, 3 mm wells
[3] = system: Acinetobacter calcoaceticus; test: Inhibition zone assay (agar plate); assay type: cell-based; settings: agar plate, 50 nanomoles/well, 3 mm wells
E. coli 11775 = test: Minimal inhibitory concentration (liquid culture); settings: a-b = highest concentration with growth - lowest without growth
Haemophilus influenzae = test: Inhibition zone assay (agar plate); assay type: cell-based; settings: 50 nanomoles/well, 3 mm wells
M. morganii = test: Minimal inhibitory concentration (liquid culture); settings: inoculum 400 CFU/ml; a-b = highest concentration with growth - lowest without growth
E. coli 23802 = test: Minimal inhibitory concentration (liquid culture); settings: inoculum 5000 CFU/ml; a-b = highest concentration with growth - lowest without growth
Campylobacter jejuni = test: Inhibition zone assay (agar plate); assay type: cell-based; settings: 50 nanomoles/well, 3 mm wells
Salmonella typhimurium = test: Inhibition zone assay (agar plate); assay type: cell-based; settings: agar plate, 50 nanomoles/well, 3 mm wells
Morganella morganii = test: Inhibition zone assay (agar plate); assay type: cell-based; settings: 50 nanomoles/well, 3 mm wells
A. calcoaceticus = test: Minimal inhibitory concentration (liquid culture); settings: inoculum 16 × 10^6 CFU/ml; a-b = highest concentration with growth - lowest without growth
Yersinia enterocolitica = test: Inhibition zone assay (agar plate); assay type: cell-based; settings: 50 nanomoles/well, 3 mm wells
Legionella pneumophila = assay type: cell-based; settings: agar plate, 50 nanomoles/well, 3 mm wells
Shigella dysenteriae = assay type: cell-based; settings: agar plate, 50 nanomoles/well, 3 mm wells

| Compound | inhibition zone diameter (number of plus signs) (Enterobacter cloacae) | minimal inhibitory concentration (MIC) (Y. enterocolitica) [µg/mL] | minimal inhibitory concentration (MIC) (S. typhimurium) [µg/mL] | minimal inhibitory concentration (MIC) (E. coli 25922) [µg/mL] | minimal inhibitory concentration (MIC) (E. coli Apid^R; inoculum 12 × 10^6 CFU/ml) [µg/mL] | minimal inhibitory concentration (MIC) (E. coli Apid^R; inoculum 1000 CFU/ml) [µg/mL] | inhibition zone diameter (number of plus signs) (Klebsiella pneumoniae) | inhibition zone diameter (number of plus signs) [1] | inhibition zone diameter (number of plus signs) (Pseudomonas syringae) | inhibition zone diameter (number of plus signs) (Rhizobium meliloti) | inhibition zone diameter (number of plus signs) (Erwinia amylovora) | inhibition zone diameter (number of plus signs) [2] | inhibition zone diameter (number of plus signs) [3] | minimal inhibitory concentration (MIC) (E. coli 11775; inoculum 16 × 10^6 CFU/ml) [µg/mL] | minimal inhibitory concentration (MIC) (E. coli 11775; inoculum 1200 CFU/ml) [µg/mL] | inhibition zone diameter (number of plus signs) (Haemophilus influenzae) | minimal inhibitory concentration (MIC) (M. morganii) [µg/mL] | minimal inhibitory concentration (MIC) (E. coli 23802) [µg/mL] | inhibition zone diameter (number of plus signs) (Salmonella typhimurium) | minimal inhibitory concentration (MIC) (A. calcoaceticus) [µg/mL] | other results |
| --- | --- | --- | --- | --- | --- | --- | --- | --- | --- | --- | --- | --- | --- | --- | --- | --- | --- | --- | --- | --- | --- |
| CC[C@H](C)[C@H](NC(=O)[C@@H]1CCCN1C(=O)[C@H](C)NC(=O)[C@@H]1CCCN1C(=O)[C@H](CCCNC(=N)N)NC(=O)[C@@H]1CCCN1C(=O)[C@H](CCCCN)NC(=O)[C@H](CC(N)=O)NC(=O)[C@@H]1CCCN1C(=O)[C@H](CCCCN)NC(=O)CN)C(=O)N[C@@H](CCCCN)C(=O)N1CCC[C@H]1C(=O)N[C@@H](CCCNC(=N)N)C(=O)N1CCC[C@H]1C(=O)N1CCC[C@H]1C(=O)N[C@@H](Cc1c[nH]cn1)C(=O)N1CCC[C@H]1C(=O)N[C@@H](CCCNC(=N)N)C(=O)N[C@@H](CC(C)C)C(=O)O [Cd 2+, Gly--Lys--Pro--Asn--Lys--Pro--Arg--Pro--Ala--Pro--Ile--Lys--Pro--Arg--Pro--Pro--His--Pro--Arg--Leu] (H-GKPNKPRPAPIKPRPPHPRL-OH) | +++ ((+++) 10-14 mm) | 10 to 20 | 0.1 to 0.5 | 0.1 to 0.5 | 0.5 to 1.5 | 0.5 to 1 | ++ ((++) 7-9 mm) | +++ ((+++) 10-14 mm) | +++ ((+++) 10-14 mm) | ++++ ((++++) 15-19 mm) | ++ ((++) 7-9 mm) | +++ ((+++) 10-14 mm) | + ((+) 5-6 mm) | 0.1 to 0.5 | 0.1 to 0.5 | ++++ ((++++) 15-19 mm) | 1 to 5 | 0.1 to 0.5 | +++ ((+++) 10-14 mm) | 10 to 20 | inhibition zone diameter (number of plus signs) (Escherichia coli (K514)): ++ ((++) 7-9 mm); minimal inhibitory concentration (MIC) (E. coli Apid^R; inoculum 12 × 10^6 CFU/ml, listed as Cd2+): measurable activities; inhibition zone diameter (number of plus signs) (Campylobacter jejuni): +++++ ((+++++) 20 or more min); inhibition zone diameter (number of plus signs) (Morganella morganii): ++ ((++) 7-9 mm) |
| CC[C@H](C)[C@H](NC(=O)[C@H](Cc1ccc(O)cc1)NC(=O)[C@@H](NC(=O)[C@@H]1CCCN1C(=O)[C@H](CCCNC(=N)N)NC(=O)[C@H](CC(N)=O)NC(=O)[C@H](C)N)C(C)C)C(=O)N1CCC[C@H]1C(=O)N1CCC[C@H]1C(=O)N1CCC[C@H]1C(=O)N[C@@H](CCCNC(=N)N)C(=O)N1CCC[C@H]1C(=O)N1CCC[C@H]1C(=O)N[C@@H](Cc1c[nH]cn1)C(=O)N1CCC[C@H]1C(=O)N[C@@H](CCCNC(=N)N)C(=O)N[C@@H](CC(C)C)C(=O)O [Bb+A] (H-ANRPVYIPPPRPPHPRL-OH) | +++ ((+++) 10-14 mm) | 5 to 10 | 0.5 to 1 | 0.5 to 1 | > 40 | > 40 | ++ ((++) 7-9 mm) | ++++ ((++++) 15-19 mm) | +++++ ((+++++) 20 or more min) | ++++ ((++++) 15-19 mm) | ++++ ((++++) 15-19 mm) | ++++ ((++++) 15-19 mm) | ++ ((++) 7-9 mm) | 0.5 to 1 | 0.05 to 0.1 | +++ ((+++) 10-14 mm) | 20 to 40 | 10 to 20 | +++ ((+++) 10-14 mm) | 2 to 10 | inhibition zone diameter (number of plus signs) (Yersinia enterocolitica): +++ ((+++) 10-14 mm); inhibition zone diameter (number of plus signs) (Legionella pneumophila): ++ ((++) 7-9 mm); inhibition zone diameter (number of plus signs) (Shigella dysenteriae): + +++ |
